Experimental data from patent US6096749A, “Pyrrolopyrimidine derivatives having pharmacological activity” (Novartis Corporation, priority 1994, dated 2000).
Values joined by “and” are separate entries in the source; they are usually repeats but may differ in a detail not shown here. Equal values may be shown once. Read-outs that look alike come from different tables or passages of the source.

Assays:
EGF-R ICD = biological target: T1, EGF-R ICD (Homo sapiens, UniProt P00533); test: Inhibitory action on EGF-R ICD (intracellular domains of the EGF receptor) tyrosine protein kinase, Test A; type: biochemical; settings: concentration at which inhibition is half the maximum inhibition
T1 construct: recombinant intracellular domains of the EGF-receptor (EGF-R ICD)
T1 sequence (P00533 669-1210 limits assumed): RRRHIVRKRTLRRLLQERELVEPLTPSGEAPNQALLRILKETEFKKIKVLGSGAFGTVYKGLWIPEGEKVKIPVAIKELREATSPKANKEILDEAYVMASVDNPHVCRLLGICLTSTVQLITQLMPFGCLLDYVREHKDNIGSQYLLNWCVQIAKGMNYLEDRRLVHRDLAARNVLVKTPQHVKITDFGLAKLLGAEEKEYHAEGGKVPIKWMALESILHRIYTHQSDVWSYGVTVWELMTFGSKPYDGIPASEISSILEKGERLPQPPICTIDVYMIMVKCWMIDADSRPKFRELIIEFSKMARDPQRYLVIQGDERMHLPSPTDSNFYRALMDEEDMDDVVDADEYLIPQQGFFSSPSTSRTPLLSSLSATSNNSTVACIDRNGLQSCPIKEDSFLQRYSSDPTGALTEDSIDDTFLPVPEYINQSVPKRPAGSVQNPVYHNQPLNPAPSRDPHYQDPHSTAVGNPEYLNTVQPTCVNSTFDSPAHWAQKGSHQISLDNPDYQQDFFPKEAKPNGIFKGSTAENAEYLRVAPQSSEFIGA
Excerpt: Test A) Inhibitory action on EGF-R ICD (ICD=intracellular domains): The test system is described above. The result is given as IC50 in μM (concentration of active ingredient at which inhibition is half the maximum inhibition).
The test system is described above. The result is given as IC50 in μM (concentration of active ingredient at which inhibition is half the maximum inhibition).

[1] = system: BALB/c mouse keratinocyte cell line (MK cells); test: Inhibitory action on the growth of MK cells (BALB/MK), Test B; type: cell-based; settings: 72 h, three days incubation, methylene blue staining, Examples 16 to 22
Experimental: The test compounds (dissolved in DMSO) are added in a series of concentrations (dilution series), so that the final concentration of DMSO is not grater than 1% (v/v). […] The growth of the MK cells is measured by means of methylene blue staining: after incubation, the cells are fixed with glutaraldehyde, washed with water and stained with 0.05% methylene blue. […] IC50 values are calculated by means of a computer-assisted system using the formula:
IC50 =(ODtest -ODstart)/(ODcontrol
Test B) Inhibitory action on the growth of MK cells: The test system is described in detail above. The result is given as IC50 in μM (concentration of active ingredient at which inhibition is half the maximum inhibition).

[2] = Example 32, table 3, read-out: IC50 (inhibitory action on the intracellular domains of EGF-R (ICD))
[3] = Examples 16 to 22, read-out: IC50 (Test A: inhibitory action on EGF-R ICD)

SMILES	IC50 (EGF-R ICD; [2])	IC50 (EGF-R ICD; [3])	IC50 [1]
Cc1[nH]c2ncnc(Nc3cccc(Br)c3)c2c1C [Example 2, 4-(m-Bromoanilino)-5,6-dimethyl-7H-pyrrolo[2,3-d]pyrimidine]	25 nM	–	–
Cc1[nH]c2ncnc(Nc3cccc(F)c3)c2c1C [Example 3, 4-(m-Fluoroanilino)-5,6-dimethyl-7H-pyrrolo[2,3-d]pyrimidine]	550 nM	–	–
Cc1[nH]c2ncnc(Nc3cc(Cl)cc(Cl)c3)c2c1C [Example 4, 4-(m,m-Dichloroanilino)-5,6-dimethyl-7H-pyrrolo[2,3-d]pyrimidine]	170 nM	–	–
Cc1cccc(Nc2ncnc3[nH]c(C)c(C)c23)c1 [Example 5, 4-(m-Methylanilino)-5,6-dimethyl-7H-pyrrolo[2,3-d]pyrimidine]	570 nM	–	–
Brc1cccc(Nc2ncnc3[nH]c4c(c23)CCCC4)c1 [Example 8, 4-(m-Bromoanilino)-5,6-tetramethylene-7H-pyrrolo[2,3-d]pyrimidine]	46 nM	–	–
Fc1cccc(Nc2ncnc3[nH]c4c(c23)CCCC4)c1 [Example 9, 4-(m-Fluoroanilino)-5,6-tetramethylene-7H-pyrrolo[2,3-d]pyrimidine]	200 nM	–	–
Cc1cccc(Nc2ncnc3[nH]c4c(c23)CCCC4)c1 [Example 10, 4-(m-Methylanilino)-5,6-tetramethylene-7H-pyrrolo[2,3-d]pyrimidine]	820 nM	–	–
COc1cccc(Nc2ncnc3[nH]c4c(c23)CCCC4)c1 [Example 11, 4-(m-Methoxyanilino)-5,6-tetramethylene-7H-pyrrolo[2,3-d]pyrimidine]	350 nM	–	–
Brc1cccc(Nc2ncnc3[nH]c(-c4ccccc4)c(-c4ccccc4)c23)c1 [Example 13, 4-(m-Bromoanilino)-5,6-diphenyl-7H-pyrrolo[2,3-d]pyrimidine]	96 nM and 33 nM	–	–
FC(F)(F)c1cccc(Nc2ncnc3[nH]c4c(c23)CCCC4)c1 [Example 14, 4-(m-Trifluoromethylanilino)-5,6-tetramethylene-7H-pyrrolo[2,3-d]-pyrimidine]	360 nM	–	–
Clc1ccc(Nc2ncnc3[nH]c4c(c23)CCCC4)cc1Cl [Example 15, 4-(m,p-Dichloroanilino)-5,6-tetramethylene-7H-pyrrolo[2,3-d]pyrimidine]	150 nM	–	–
Cc1ccc(Nc2ncnc3[nH]c(C)c(C)c23)cc1 [Example 17, 4-(p-Methylanilino)-5,6-dimethyl-7H-pyrrolo[2,3-d]pyrimidine]	–	1900 nM	24600 nM
Cc1[nH]c2ncnc(Nc3ccc(Cl)c(Cl)c3)c2c1C [Example 18, 4-(m,p-Dichloroanilino)-5,6-dimethyl-7H-pyrrolo[2,3.d]pyrimidine]	–	70 nM	34800 nM
Cc1[nH]c2ncnc(Nc3ccccc3F)c2c1C [Example 19, 4-(o-Fluoroanilino)-5,6-dimethyl-7H-pyrrolo[2,3-d]pyrimidine]	–	1600 nM	49300 nM
Cc1[nH]c2ncnc(Nc3ccc(F)cc3)c2c1C [Example 20, 4-(p-Fluoroanilino)-5,6-dimethyl-7H-pyrrolo[2,3-d]pyrimidine]	–	560 nM	13100 nM
Cc1ccc(Nc2ncnc3[nH]c4c(c23)CCCC4)cc1 [Example 22, 4-(4-Methylanilino)-5,6-tetramethylene-7H-pyrrolo[2,3-d]pyrimidine]	–	110 nM	13900 nM
COc1ccc(-c2cc3c(Nc4cccc(Cl)c4)ncnc3[nH]2)cc1 [Example 26, 4(m-Chloroanilino)-6-(4-methoxyphenyl)-7H-pyrrolo[2,3-d]pyrimidine]	15 nM	–	–
COc1ccc(OC)c(-c2cc3c(Nc4cccc(Cl)c4)ncnc3[nH]2)c1 [Example 27, 4-(m-Chloroanilino)-6-(2,5-dimethoxyphenyl)-7H-pyrrolo[2,3-d]-pyrimidine]	33 nM	–	–
Clc1cccc(Nc2ncnc3[nH]c(-c4ccccc4)cc23)c1 [Example 28, 4-(m-Chloroanilino)-6-(phenyl)-7H-pyrrolo[2,3-d]pyrimidine]	13 nM	–	–
COc1ccc(-c2[nH]c3ncnc(Nc4cccc(Cl)c4)c3c2C)cc1 [Example 29, 4-(m-Chloroanilino)-5-methyl-6-(4-methoxyphenyl)-7H-pyrrolo[2,3-d]-pyrimidine]	430 nM	–	–
COc1cccc(-c2cc3c(Nc4cccc(Cl)c4)ncnc3[nH]2)c1 [Example 30, 4-(m-Chloroanilino)-6-(3-methoxyphenyl)-7H-pyrrolo[2,3-d]pyrimidine]	1770 nM	–	–
COc1ccccc1-c1cc2c(Nc3cccc(Cl)c3)ncnc2[nH]1 [Example 31, 4-(m-Chloroanilino)-6-(2-methoxyphenyl)-7H-pyrrolo[2,3-d]pyrimidine]	19 nM	–	–
